One assay concerns ED cells. Nature of the assay: ATL cell proliferation assay (WST-8), ED cells. It is filed as cell-based, human. Conditions: read-out: IC50 (inhibition of cell proliferation), ED. On the procedure: (§1) ED cells were kindly provided by Dr. M. Maeda (Kyoto University, Kyoto, Japan) and Su9T01 cells were kindly provided by Dr. N. Arima (Kagoshima University, Kagoshima, Japan). The test compounds were dissolved in dimethyl sulfoxide and subjected to assay screening. The method of ATL assay is described in a previous report. IC50 calculation was some curve fitted onto the determined proliferation inhibition points.
Background: Formazan colour is commonly taken as a measure of viable cells.

A further assay concerns Su9T01 cells. Nature of the assay: ATL cell proliferation assay (WST-8), Su9T01 cells. Type of assay: cell-based, human. Conditions: read-out: IC50 (inhibition of cell proliferation), Su9T01. As for the experimental part:
as §1

For assay [1], the system named is phytohemagglutinin-activated human peripheral blood mononuclear cells (PBMC). Nature of the assay: cells. Conditions: read-out: IC50 (inhibition of PBMC proliferation). As for the experimental part:
as §1

The subject of another assay is HL-60 cells. Details: method as in PMID 22654956, PMID 18959405. As to conditions: human acute myelogenous leukemia cells; cited from earlier work.
Where [2] appears, read: Homo sapiens, ED cells, 72 h incubation in RPMI-1640, WST-8 assay.
The mark [3] stands for this setting: Homo sapiens, Su9T01 cells, 72 h incubation in RPMI-1640, WST-8 assay.
Where [4] appears, read: ED cells, 72 h incubation in RPMI-1640, WST-8 assay.
Setting [5] is: Su9T01 cells, 72 h incubation in RPMI-1640, WST-8 assay.

Read-outs that look alike come from different tables or passages of the source.

Regarding `CCCCCCCC/C=C/CCCCCCCC(=O)O` [elaidic acid], the IC50 is > 500 µM in the assay on ED cells (Homo sapiens, 72 h) and > 500 µM with Su9T01 cells (Homo sapiens, 72 h).
For the compound `CCCCC/C=C\C/C=C\CCCCCCCC(=O)O` [linoleic acid], the IC50 turned out to be 101 µM in the assay on ED cells (setting [2]) and 180 µM in the assay with Su9T01 cells (setting [3]).
As for `CCCCCCCCCCCCCCCCCC(=O)O` [stearic acid, Stearic acid], the IC50 with Su9T01 cells (setting [3]) was > 500 µM.
As for `CCCC/C=C/C=C/C=C\CCCCCCCC(=O)O` [α-ESA, α-Eleostearic acid], the IC50 in the assay with ED cells (Homo sapiens, 72 h) stood at 8.9 µM; in assay [1] it was 31 µM; in the assay on Su9T01 cells (Homo sapiens, 72 h) it was 29.3 µM. In addition, in the assay with HL-60 cells, the “Anti-leukemic potential in HL-60 cells” value was “anti-leukemic potential”.
As for `CC/C=C\C/C=C\C/C=C\CCCCCCCC(=O)O` [α-linolenic acid], the values for the IC50 with ED cells (setting [4]) and in the assay on Su9T01 cells (setting [5]) were 130 µM and 167 µM, respectively.
Regarding `CCCCC/C=C\C/C=C\C/C=C\CCCCC(=O)O` [γ-linolenic acid, γ-Linolenic acid], the results for the IC50 in the assay on ED cells (setting [2]) and in the assay on Su9T01 cells (setting [3]) were 61.3 µM and 174 µM, respectively.
On to Epigallocatechin-3-gallate [EGCG], for which the IC50 with ED cells (setting [4]) is 153 µM; with Su9T01 cells (setting [5]), 166 µM.
